For orientation: melting point means the temperature of the solid-liquid transition.

Bounds are passed on as bounds.

In the case of `CCc1nn(CCC(N)=O)c(CC)c1Cc1cc(Cl)cc(Cl)c1`, the melting point was 140 to 142 °C. The molecule `Cc1c(Cc2cccc(C(F)(F)F)c2)sc2c(-c3cccc(C(=O)NCCOC(C)C)c3)cccc12` had a melting point of 121 to 122 °C.

Regarding `C#CCON=C(C(C)=NOCc1ccccc1C(=COC)C(=O)OC)c1ccc(F)cc1`, the melting point fell in the range of 91 to 93 °C. As for `CC(C)(C)c1cc(S)cc(C(C)(C)C)c1`, the figure is 47 to 49 °C; as for `Fc1ccc(C(F)(F)C(F)(F)c2ccccc2)c(Br)c1`, 47 to 48 °C. With `Cn1nc(O)c(Cl)c1C(F)(F)F` the figure was 136 to 140 °C; with `CCc1nc(N)sc1-c1ccncc1`, 209 to 211 °C. As for `O=NN(CCCl)C(=O)NC1OC(CO)C(O)C1O` (stereo not drawn), the figure is 69 to 71 °C; as for `COc1ccc(C(=O)CCCCCN2CCC(CNC(=O)c3cc(Cl)c(N)cc3OC)CC2)cc1OC`, 102 to 105 °C; as for `CCOC(=O)c1c(-c2cccc(Cl)c2)csc1N1C(=O)c2ccccc2C1=O`, 169 °C.

In turn, `COc1ccc2c(c1)c(-c1ccccc1)nc(=O)n2CC1CC1` had a melting point of 114 to 115 °C. With `CCOC(=O)C(C#N)=CC=CN(C)C` the figure was 134 to 135 °C; with `COc1cc(NC(=O)CCCCCN2CCN(c3ccc(Cl)c(Cl)c3)CC2)c2nccc(C)c2c1`, 99 to 100 °C; with `Cc1n[nH]c2c1C(=O)CC(C)(C)C2`, 103 to 104 °C. As for `NS(=O)(=O)c1ccccc1OCCCl`, the figure is 110 °C; as for `Fc1ccc(C#CC2=CCN(Cc3coc4ccccc34)CC2)cc1`, 79 to 80 °C; as for `CN(c1ccc(Cl)cc1)S(=O)(=O)c1cccc(C(=O)Nc2ccc(Cl)cc2F)c1`, 119 to 120 °C. With `CCn1c(C(C)NS(=O)(=O)c2ccc(Cl)c(Cl)c2)cnc1Oc1ccc2cc[nH]c2c1` (stereo not drawn) the figure was 150 to 154 °C; with `FC(F)(F)Oc1ccc(C2CCC3(CC2)OCCO3)cc1`, 41.2 °C.

As for `COC(=O)c1ncn(C2OC(COC(C)=O)C(OC(C)=O)C2OC(C)=O)n1` (stereo not drawn), the melting point lay within 107 to 109 °C.

As for `CC(C)(NC(=O)C1=C(C(=O)Nc2cc(OC3CCCC3)c(Cl)cc2F)CCCC1)c1cccc(Cl)c1`, the melting point was 222 to 226 °C. In turn, `CS(=O)(=O)c1ccc(-c2[nH]c3ccccc3c2-c2ccc(Br)cc2)cc1` had a melting point of 225 to 226 °C. As for `CC1(C)CC(c2ccc[nH]c2=O)c2cc(C#N)ccc2O1` (stereo not drawn), the figure is 174 to 176 °C; as for `COCCOC1(S(C)=O)C=CC=C(C(=O)c2cnoc2C2CC2)C1Br` (stereo not drawn), 86.2 to 87 °C; as for `CN(C)c1ccc(-c2n[nH]c(=O)c3cc(N(C)C)ccc23)cc1`, 230 to 233 °C. As for `CNS(=O)(=O)c1cc(C(=O)O)cc(N2CCCC2)c1Oc1ccccc1`, the figure is 245 to 248 °C; as for `CC(C)n1nc(-c2c(-c3ccccc3)nn3ccc(N4CCN(C(=O)CN(C)C)CC4)cc23)ccc1=O`, 129 to 130 °C. As for `COc1cccc(C=C2NC(=O)NC2=O)c1`, the figure is 229 to 231 °C. In turn, `CS(=O)c1ccc(-c2oncc2CCCO)cc1` (stereo not drawn) returned a melting point of 73 to 74 °C. With `O=C1NCC(c2cccs2)SCC1N1C(=O)c2ccccc2C1=O` (stereo not drawn) the figure was 183 to 184 °C; with `CN1Cc2cccnc2N(c2ccc(F)cc2)C1=O`, 212 to 213 °C. As for `CC(C)COc1cc(C(=O)O)cc(N)c1C(=O)c1ccccc1`, the figure is 192 to 196 °C; as for `CC(C)(C)OC(=O)CN(CCO)C(=O)c1cc([N+](=O)[O-])ccc1F`, 116 to 118 °C. With `N#Cc1cccc(C2=Nc3cc(O)c(-c4cc(F)ccc4F)cc3NC(=O)C2)c1` the figure was more than 250 °C; with `CCOc1ccc(Nc2ccc(Nc3ccc(OCC)cc3)c3c2C(=O)c2c(Nc4ccc(OCC)cc4)ccc(Nc4ccc(OCC)cc4)c2C3=O)cc1`, 173 to 175 °C. `O=S(=O)(c1ccccc1)n1c2ccc(Br)cc2c2c(Cl)ccnc21`: the melting point is 212 to 214 °C.

Molecule `Cc1ccc(NC(=O)c2ccc(C3OCC(SC(C)C(O)(Cn4cncn4)c4ccc(F)cc4F)CO3)cc2)cc1` (stereo not drawn) came in with a melting point of 101 °C. With `CCOC(=O)CNC(=O)CCCCCNC(=O)OC(C)(C)C` the figure was 76 to 77 °C; with `Cn1c(C(F)(F)F)ccc(-c2cc([N+](=O)[O-])c(F)cc2F)c1=O`, 115 to 118 °C; with `O=C(O)C(=O)c1ccc(OCCOc2ccc3cc4ccccc4cc3c2)cc1`, 213 to 214 °C. With `Cc1cccc2c1ncn2Cc1oc2ccc(Br)cc2c(=O)c1-c1ccccc1` the figure was 176 to 179 °C; with `c1cc2c(ccc3[nH]c4c(c32)CNCC4)s1`, 190 °C; with `CCCCOCc1cc2c3ccccc3[nH]c(=O)n2n1`, 170 to 172 °C. With `COc1nc(C)nc(OC)c1C=S` the figure was 136 °C; with `O=C(Nc1cnc2c(c1)nc1n2CCCC1)c1cc2cc(C(F)(F)F)ccc2n1Cc1cccc(F)c1`, 262 to 263 °C. The molecule `CCN1CC(C)Oc2cccc3nc4c(c1c23)CCCC4` (stereo not drawn) showed a melting point of 101 to 103 °C.

With `CN(Cc1ccc(COOC(=O)NC(Cc2ccccc2)C(=O)O)cc1)c1ccccc1` (stereo not drawn), the melting point was in the range of 69.6 to 70.1 °C. As for `CC[C@@H]1COC(=O)N1c1nc(-c2ccc(C#N)cc2)cs1`, the figure is 153 to 157 °C; as for `CCCCCCCCCCCCN1C(C)(C)CC(O)CC1(C)C`, 41 to 42 °C; as for `Nc1ncc(-c2ccc(=O)[nH]n2)c(-c2ccco2)n1`, 262 to 268 °C. With `Cc1oc2nc3c(c(N)c2c1C)C(=O)CCC3` the figure was 190 to 198 °C; with `CC(C)(C)OC(=O)C1CC(c2ccc(-c3ccc(N4C[C@H](Cn5ccnn5)OC4=O)cc3F)cn2)=NO1` (stereo partly drawn), 165 to 168 °C; with `C=Cc1ccc(Nc2nc(Cl)nc(Cl)c2Cl)cc1`, 112 to 114 °C. `CCCCCS(=O)(=O)NC(=O)CCc1cc(OCc2ccccc2)nn1Cc1ccc(Cl)cc1Cl` yielded a melting point of 139 to 141 °C. With `O=C1N(Cc2ccccc2OC(F)(F)F)c2ccccc2C12COc1cc3c(cc12)OCO3` (stereo not drawn) the figure was 88 to 91 °C; with `CCCn1nnn(-c2cc(Cl)c(Cl)cc2Cl)c1=O`, 89 to 90 °C; with `CC(=O)N(C)C1CCNCC1`, less than 50 °C.

`COC(=O)CNC(=O)c1ccc(C(=O)NS(=O)(=O)c2ccccc2)cn1` gave a melting point of 125 to 126 °C.

Consider `Cc1ncccc1OCC1(c2onc(-c3ccc(O)cc3)c2-c2ccccc2)CC1`, for which the melting point fell in the range of 194 to 195 °C.

`CCOC(=O)CC[C@H](NC(=O)c1ccc(C(CO)CC2CNc3nc(NC(=O)C(C)(C)C)nc(O)c3C2)cc1)C(=O)OCC` (stereo partly drawn) had a melting point of 133 to 135 °C. With `COc1cc(OC)c2c(=O)[nH]c(-c3cc(C)c(OCCN4CCOCC4)c(C)c3)cc2n1` the figure was 212 to 213 °C. With `CCCCOc1ccc(Cl)cc1C(=O)NCCc1ccc(CC(=O)O)cc1` the figure was 104 to 105 °C.

Regarding `CN1CCC(n2nc(-c3c(-c4ccccc4)nn4ccccc34)ccc2=O)CC1`, the melting point was 139 to 140 °C.

The values above are taken from a melting point compilation (Tetko et al.; mined from patent text by program, amines drawn as free bases though some values may be those of a salt).
